The source of these data is PMC2246472, “Bombesin and bombesin antagonists: studies in Swiss 3T3 cells and human small cell lung cancer” (British Journal of Cancer, 1988).

Like-named read-outs stand apart in the source and are kept apart here.

For one assay, the target named is T1, bombesin/GRP receptor (Mus musculus, UniProt P21729).
T1 construct: endogenous in cells; host or cells: Swiss 3T3 murine fibroblasts (intact, quiescent/confluent)
The note with it: Swiss 3T3 cells; ref Zachary & Rozengurt, 1985a; cited from earlier work. From the text:
Br. J. Cancer (1988), 57, 579-586 ? The Macmillan Press Ltd., 1988 Bombesin and bombesin antagonists: Studies in Swiss 3T3 cells and human small cell lung cancer* P.J. Woll & E. Rozengurt Imperial Cancer Research Fund, PO Box 123, Lincoln's Inn Fields, London WC2A 3PX, UK.

The subject of assay [1] is Swiss 3T3 cells. Further details: method as in 2 sources, one per row (each row's own in cited_ref): ref Rozengurt & Sinnett-Smith, 1983 ||| ref Zachary & Rozengurt, 1985a. The note with it: serum-free medium, cited from earlier work.
The test system of the next assay is pancreatic acinar cells. The note with it: ref Jensen et al., 1984; cited from earlier work.
The subject of another assay is H69 SCLC cell line. Description: Growth of H69 SCLC cell line in serum-free HITES medium (Coulter counter). The format is cell-based, human. The note with it: peptide A at 150 pM (so in the source), HITES medium + 0.25% bovine serum albumin, inoculum 5 x 10^4 cells, mean of 3; restored by washing; Figure 3 left.
For assay [2], the target named is T2, Mr 75,000-85,000 protein component of the bombesin/GRP receptor (Mus musculus, UniProt P21729).
T2 construct: endogenous in cells; host or cells: Swiss 3T3 murine fibroblasts (intact, quiescent/confluent)
The note with it: Swiss 3T3 cells; ref Zachary & Rozengurt, 1987a; cited from earlier work. From the text:
(§1) Br. J. Cancer (1988), 57, 579-586 ? The Macmillan Press Ltd., 1988 Bombesin and bombesin antagonists: Studies in Swiss 3T3 cells and human small cell lung cancer* P.J. Woll & E. Rozengurt Imperial Cancer Research Fund, PO Box 123, Lincoln's Inn Fields, London WC2A 3PX, UK. Summary Bombesins are potent growth factors for murine Swiss 3T3 cells. Using these cells in chemically defined conditions we have been able to characterise the bombesin receptor and the early signals preceding DNA synthesis. We describe two substance P analogues [DArg1, DPro2, DTrp7 9, Leu1 ] substance P and [DArg1, DPhe5, ...

For assay [3], the system named is Swiss 3T3 cells. The note with it: ref Zachary & Rozengurt, 1985a; cited from earlier work.
Text: as §1

In assay [4] the test system is c-fos and c-myc expression. The note with it: Swiss 3T3 cells; ref Rozengurt & Sinnett-Smith, 1987; cited from earlier work.
Text: as §1

The test system of assay [5] is GRP-stimulated mitogenesis in Swiss 3T3 cells. The note with it: ref Zachary & Rozengurt, 1985a; cited from earlier work.
Text: as §1

A further assay deals with EGF receptor. The note with it: Swiss 3T3 cells; ref Zachary et al., 1986; cited from earlier work.
Text: as §1

In the next assay the test system is Na+/K+ pump. The note with it: Swiss 3T3 cells; ref Mendoza et al., 1986; cited from earlier work.
Text: as §1

The next assay concerns Ca2+ mobilization. The note with it: Swiss 3T3 cells; ref Mendoza et al., 1986; cited from earlier work.
Text: as §1

The test system of assay [6] is vasopressin-stimulated DNA synthesis in Swiss 3T3 cells. The note with it: ref Zachary & Rozengurt, 1986, Corps et al., 1985; cited from earlier work.
Text: as §1

For assay [7], the system named is protein kinase C (80K phosphorylation). The note with it: Swiss 3T3 cells; ref Zachary et al., 1986; cited from earlier work.
Text: as §1

T1 sequence (P21729 whole entry): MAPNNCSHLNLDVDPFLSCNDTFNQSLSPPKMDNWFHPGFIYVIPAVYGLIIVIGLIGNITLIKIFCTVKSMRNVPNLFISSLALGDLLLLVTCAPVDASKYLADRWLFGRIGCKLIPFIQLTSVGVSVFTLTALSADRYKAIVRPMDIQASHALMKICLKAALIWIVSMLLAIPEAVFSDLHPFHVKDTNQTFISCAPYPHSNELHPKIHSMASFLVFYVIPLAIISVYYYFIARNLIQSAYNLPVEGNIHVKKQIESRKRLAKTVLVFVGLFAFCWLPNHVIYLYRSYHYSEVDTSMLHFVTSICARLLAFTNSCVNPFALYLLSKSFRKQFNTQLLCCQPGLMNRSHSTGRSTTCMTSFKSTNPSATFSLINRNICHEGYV
T2 sequence (P21729 whole entry): as above

In the case of PDGF, the “inhibition of [125I]GRP binding by other mitogens and neuropeptides” value (shortened to “inhibition of [125I]GRP binding”) on bombesin/GRP receptor is given as “not inhibited”.

In the case of insulin, in the assay with bombesin/GRP receptor, the “inhibition of [125I]GRP binding” value is on record as “not inhibited”.

Consider `CCCC(=O)O[C@@H]1[C@@H](C)[C@@]2(O)[C@@H](C=C(CO)C[C@]3(O)C(=O)C(C)=C[C@@H]23)[C@@H]2C(C)(C)[C@]12OC(=O)CCC` [PBt2, phorbol 12,13, dibutyrate, reference compound], for which the “inhibition of [125I]GRP binding” value on bombesin/GRP receptor was “not inhibited”.

Take “pGlu Gin Arg Leu Gly Asn Gin Trp Ala Val Gly His Leu Met NH2 [bombesin, tetradecapeptide first isolated from amphibian skin]”: the EC50 in the assay with Swiss 3T3 cells [1] (absence of other growth-promoting agents, ref Rozengurt & Sinnett-Smith, 1983, read-out: bombesin concentration giving half-maximal effect on DNA synthesis) was 1 nM; in the assay on Swiss 3T3 cells [1] (in the presence of insulin, ref Zachary & Rozengurt, 1985a, read-out: bombesin concentration required to produce a half-maximal response (DNA synthesis) with insulin), 0.3 nM.

With EGF: epidermal growth factor, the “inhibition of [125I]GRP binding” value with bombesin/GRP receptor is recorded as “not inhibited”.

For “Arg Pro Lys Pro Gln Gln Phe Phe Gly Leu Met NH2 [substance P, tachykinin with minimal structural homology with bombesin, reference compound]”, the “inhibition of [125I]GRP binding” value with bombesin/GRP receptor is “not inhibited”.

Take “DArg Dpro Lys Pro Gln Gln DTrp Phe DTrp Leu Leu NH2 [peptide A, [DArg1, DPro2, DTrp7,9, Leu11] substance P]”: the “effect on [125I]GRP binding (Table III)” value at bombesin/GRP receptor is on record as “reversibly blocks”. Further, in the assay with pancreatic acinar cells, the “effect on secretory effects of bombesin in pancreatic acinar cells” value is reported as “block the secretory effects of bombesin”. Besides, the “effect on growth of H69 cells” value with H69 SCLC cell line is given as “suppressed”. The “effect on cross-linking of [125I]GRP to the Mr 75,000-85,000 glycoprotein (Table III)” value in assay [2] is reported as “reversibly blocks”. Besides, the “effect on DNA synthesis stimulated by PDGF, EGF, phorbol esters and c-AMP-increasing agents (Table III)” value in the assay on Swiss 3T3 cells [3] was “is not affected”. Further, the “effect on increase in c-fos and c-myc expression (Table III)” value in assay [4] is on record as “reversibly blocks”. Moreover, the “effect on stimulation of DNA synthesis by bombesin-like peptides (Table III)” value in assay [5] is on record as “reversibly blocks”. In addition, the “effect on EGF transmodulation (Table III)” value with EGF receptor was “reversibly blocks”. Also, in the assay with Na+/K+ pump, the “effect on activation of Na+/K+ pump (Table III)” value is recorded as “reversibly blocks”. Also, the “effect on Ca2+ mobilization (Table III)” value in the assay with Ca2+ mobilization is recorded as “reversibly blocks”. The “effect on stimulation of DNA synthesis by vasopressin (Table III)” value in assay [6] is listed as “reversibly blocks”. Further, in [7], the “effect on 80K phosphorylation (Table III)” value is on record as “reversibly blocks”.

For the compound “vasoactive intestinal peptide [VIP, reference compound]”, in the assay with bombesin/GRP receptor, the “inhibition of [125I]GRP binding” value was “not inhibited”.

Consider vasopressin [reference compound], for which the “inhibition of [125I]GRP binding” value with bombesin/GRP receptor is “not inhibited”.
